Measurements from PubChem BioAssay AID330 (DTP/NCI, 2004).
Values joined by “and” are separate entries in the source; they are usually repeats but may differ in a detail not shown here. Identical values can stand only once. Toxic doses and inconclusive results are not listed. The calls were made as follows: active = survival T/C of 150% or more; inactive = T/C below 125% in these data.

System: P388 leukemia ip, CD2F1 mice, survival T/C
Assay: NCI In Vivo Anticancer Drug Screen. Data for tumor model P388 Leukemia (intraperitoneal) in CD2F1 (CDF1) mice
Details: endpoint: median survival time, higher = longer survival
Outline: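 Mice carrying the transplanted tumor received test compound or vehicle. Survival was recorded in each group, and the value is the treated-group measurement divided by that of the vehicle-treated control group.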

[1] = dose: 50.0 mg/kg/injection, schedule: Q01DX009 (ip), vehicle: saline with Tween-80
[2] = dose: 100.0 mg/kg/injection, schedule: Q01DX009 (ip), vehicle: saline with Tween-80
[3] = dose: 200.0 mg/kg/injection, schedule: Q01DX009 (ip), vehicle: saline with Tween-80
[4] = dose: 25.0 mg/kg/injection, schedule: Q01DX005 (ip), vehicle: saline
[5] = dose: 50.0 mg/kg/injection, schedule: Q01DX005 (ip), vehicle: saline
[6] = dose: 50.0 mg/kg/injection, schedule: Q01DX005 (ip), vehicle: saline with Tween-80
[7] = dose: 100.0 mg/kg/injection, schedule: Q01DX005 (ip), vehicle: saline with Tween-80
[8] = dose: 200.0 mg/kg/injection, schedule: Q01DX005 (ip), vehicle: saline with Tween-80
[9] = dose: 50.0 mg/kg/injection, schedule: Q01DX009 (ip), vehicle: saline
[10] = dose: 100.0 mg/kg/injection, schedule: Q01DX009 (ip), vehicle: saline
[11] = dose: 200.0 mg/kg/injection, schedule: Q01DX009 (ip), vehicle: saline
[12] = dose: 4.0 mg/kg/injection, schedule: Q01DX009 (ip), vehicle: water
[13] = dose: 8.0 mg/kg/injection, schedule: Q01DX009 (ip), vehicle: water
[14] = dose: 16.0 mg/kg/injection, schedule: Q01DX009 (ip), vehicle: water
[15] = dose: 60.0 mg/kg/injection, schedule: Q01DX005 (ip), vehicle: saline with Tween-80
[16] = dose: 120.0 mg/kg/injection, schedule: Q01DX005 (ip), vehicle: saline with Tween-80
[17] = dose: 240.0 mg/kg/injection, schedule: Q01DX005 (ip), vehicle: saline with Tween-80
[18] = dose: 60.0 mg/kg/injection, schedule: Q01DX005 (ip), vehicle: Klucel (hydroxypropylcellulose) (HPC)
[19] = dose: 120.0 mg/kg/injection, schedule: Q01DX005 (ip), vehicle: Klucel (hydroxypropylcellulose) (HPC)

Measured: T/C

CC12CCN=C1c1ccc3cc(O)ccc3c1CC2 (stereo not drawn)
inactive: dose: 100.0 mg/kg/injection, schedule: Q01DX001 (sc), vehicle: steriod suspending solution 104 % of control | dose: 200.0 mg/kg/injection, schedule: Q01DX001 (sc), vehicle: steriod suspending solution 118 % of control | dose: 400.0 mg/kg/injection, schedule: Q01DX001 (sc), vehicle: steriod suspending solution 100 % of control

O=c1[nH]c2ccccc2c(=O)n1-c1cccs1
inactive: dose: 100.0 mg/kg/injection, schedule: Q04DX002 (ip), vehicle: saline 105 % of control | dose: 200.0 mg/kg/injection, schedule: Q04DX002 (ip), vehicle: saline 105 % of control | dose: 400.0 mg/kg/injection, schedule: Q04DX002 (ip), vehicle: saline 99 % of control

Cc1ccc([N+](=O)[O-])cc1NC(=O)Oc1cc(C)c(Br)c(C)c1
inactive: [1] 106 % of control | [2] 106 % of control | [3] 112 % of control

CCC1CCC2COCN2C1 (stereo not drawn)
inactive: [4] 104 % of control | [5] 120 % of control | dose: 200.0 mg/kg/injection, schedule: Q01DX005 (ip), vehicle: saline 117 % of control and 118 % of control

CCCCN(CCCC)CC(O)c1c(OC)ccc2ccccc12 (stereo not drawn)
inactive: dose: 12.5 mg/kg/injection, schedule: Q01DX005 (ip), vehicle: saline 100 % of control | [4] 98 % of control | [6] 119 % of control | [5] 105 % of control

[Mn+2].[O-]c1cc(Br)ccc1/C=N/Nc1ccccn1.[O-]c1cc(Br)ccc1/C=N/Nc1ccccn1
inactive: [7] 87 % of control | [8] 91 % of control | dose: 400.0 mg/kg/injection, schedule: Q01DX005 (ip), vehicle: saline with Tween-80 100 % of control

COc1ccc2c(c1)CCCN2
inactive: dose: 25.0 mg/kg/injection, schedule: Q01DX009 (ip), vehicle: saline with Tween-80 105 % of control and 108 % of control | [1] 103 % of control and 108 % of control | [2] 117 % of control

[Cu+].[NH-]CCCN=Cc1ccccc1O
inactive: dose: 25.0 mg/kg/injection, schedule: Q01DX001 (ip), vehicle: saline sonified 95 % of control | dose: 50.0 mg/kg/injection, schedule: Q01DX001 (ip), vehicle: saline sonified 105 % of control

Cc1ccc(S(=O)(=O)/C=C/C(=O)c2ccc3ccccc3c2)cc1
inactive: dose: 100.0 mg/kg/injection, schedule: Q04DX003 (ip), vehicle: saline 103 % of control | dose: 200.0 mg/kg/injection, schedule: Q04DX003 (ip), vehicle: saline 103 % of control | dose: 400.0 mg/kg/injection, schedule: Q04DX003 (ip), vehicle: saline 100 % of control

O=S(=O)(O)c1cccc(/C(=N\Nc2ccccn2)c2ccccn2)c1
inactive: [1] 100 % of control | [2] 102 % of control | [3] 100 % of control

O=S1C2CCC(Cl)C1CCC2Cl (stereo not drawn)
inactive: dose: 0.78 mg/kg/injection, schedule: Q01DX009 (ip), vehicle: Klucel (hydroxypropylcellulose) (HPC) 112 % of control | dose: 1.56 mg/kg/injection, schedule: Q01DX009 (ip), vehicle: Klucel (hydroxypropylcellulose) (HPC) 90 % of control

COCC1(C)CCCC2(C)C3=CC(=O)CCC3CCC12 (stereo not drawn)
inactive: dose: 100.0 mg/kg/injection, schedule: Q04DX003 (ip), vehicle: saline with Tween-80 100 % of control | dose: 200.0 mg/kg/injection, schedule: Q04DX003 (ip), vehicle: saline with Tween-80 108 % of control | dose: 400.0 mg/kg/injection, schedule: Q04DX003 (ip), vehicle: saline with Tween-80 95 % of control

c1ccc(CCc2cccc3ccccc23)nc1
inactive: [6] 98 % of control | [7] 96 % of control | [8] 100 % of control

O=[N+]([O-])c1ccc(NN=C(CO)CO)c([N+](=O)[O-])c1
inactive: dose: 50.0 mg/kg/injection, schedule: Q01DX009 (ip), vehicle: suspension in saline 98 % of control | dose: 100.0 mg/kg/injection, schedule: Q01DX009 (ip), vehicle: suspension in saline 98 % of control | dose: 200.0 mg/kg/injection, schedule: Q01DX009 (ip), vehicle: suspension in saline 97 % of control | dose: 400.0 mg/kg/injection, schedule: Q01DX009 (ip), vehicle: suspension in saline 97 % of control

C1OC2OCC1O2
inactive: [1] 87 % of control | [2] 93 % of control | [3] 105 % of control

Clc1cccc(/C=C/c2ccnnc2)c1
inactive: [9] 101 % of control | [10] 86 % of control and 97 % of control | [11] 103 % of control and 96 % of control

CCOC(=O)N1CCN(C(=O)c2nc3ccc(Cl)cc3[nH]2)CC1
inactive: dose: 50.0 mg/kg/injection, schedule: Q01DX005 (ip), vehicle: Klucel (hydroxypropylcellulose) (HPC) 108 % of control | dose: 100.0 mg/kg/injection, schedule: Q01DX005 (ip), vehicle: Klucel (hydroxypropylcellulose) (HPC) 87 % of control | dose: 200.0 mg/kg/injection, schedule: Q01DX005 (ip), vehicle: Klucel (hydroxypropylcellulose) (HPC) 93 % of control

O=S(=O)(CC(O)C(Cl)(Cl)Cl)N(Cc1ccccc1)Cc1ccccc1 (stereo not drawn)
inactive: dose: 50.0 mg/kg/injection, schedule: Q01DX009 (ip), vehicle: Klucel (hydroxypropylcellulose) (HPC) 103 % of control | dose: 100.0 mg/kg/injection, schedule: Q01DX009 (ip), vehicle: Klucel (hydroxypropylcellulose) (HPC) 103 % of control | dose: 200.0 mg/kg/injection, schedule: Q01DX009 (ip), vehicle: Klucel (hydroxypropylcellulose) (HPC) 97 % of control

COc1cc2ccc3c4c(OC)c(OC)c(OC)cc4c[n+](C)c3c2cc1OC
inactive: dose: 2.0 mg/kg/injection, schedule: Q01DX009 (ip), vehicle: water 111 % of control | [12] 113 % of control | [13] 110 % of control | [14] 118 % of control

CNC(=O)Oc1ccc(OC2OC(CO)C(O)C(O)C2O)c2ccccc12 (stereo not drawn)
inactive: dose: 100.0 mg/kg/injection, schedule: Q01DX001 (ip), vehicle: saline 101 % of control | dose: 200.0 mg/kg/injection, schedule: Q01DX001 (ip), vehicle: saline 104 % of control | dose: 400.0 mg/kg/injection, schedule: Q01DX001 (ip), vehicle: saline 103 % of control

CNC(=O)OCc1c(COC(=O)NC)c(-c2ccc(F)cc2)n(C)c1C
inactive: dose: 50.0 mg/kg/injection, schedule: Q01DX009 (ip), vehicle: distilled water + Tween-80 91 % of control

COC(=O)c1ccc(N)c2c(N)ccc(C(=O)OC)c12
inactive: [15] 98 % of control | [16] 114 % of control | [17] 97 % of control

COc1nc(Cl)cn(C)c1=O
inactive: dose: 15.0 mg/kg/injection, schedule: Q01DX005 (ip), vehicle: saline with Tween-80 101 % of control | dose: 30.0 mg/kg/injection, schedule: Q01DX005 (ip), vehicle: saline with Tween-80 98 % of control | [18] 95 % of control | [15] 107 % of control | [19] 106 % of control

COC(=N)CCNC(=O)C(O)C(O)C(=O)NCCC(=N)OC (stereo not drawn)
inactive: [9] 102 % of control | [10] 89 % of control | [11] 105 % of control

COC(=O)CC(OC)c1nc(C(=O)OC)c(C)c(=O)[nH]1 (stereo not drawn)
inactive: [12] 111 % of control | [13] 101 % of control | [14] 96 % of control | dose: 32.0 mg/kg/injection, schedule: Q01DX009 (ip), vehicle: water 99 % of control | dose: 64.0 mg/kg/injection, schedule: Q01DX009 (ip), vehicle: water 102 % of control | dose: 128.0 mg/kg/injection, schedule: Q01DX009 (ip), vehicle: water 105 % of control

Cn1nc(-c2ccccc2)c(-c2cc(-c3ccccc3)n[nH]2)c(N)c1=O
inactive: [15] 87 % of control | [16] 89 % of control | [17] 97 % of control

NC1=C(O)C(=O)C(c2c3ccccc3cc3ccccc23)O1 (stereo not drawn)
inactive: [18] 94 % of control | [19] 108 % of control | dose: 240.0 mg/kg/injection, schedule: Q01DX005 (ip), vehicle: Klucel (hydroxypropylcellulose) (HPC) 86 % of control

CCCC(=O)Oc1c(OC)cc(O)c2c(=O)c(O)c(-c3ccc(OC)cc3)oc12
inactive: dose: 14.0 mg/kg/injection, schedule: Q01DX005 (ip), vehicle: Klucel (hydroxypropylcellulose) (HPC) 89 % of control | dose: 56.0 mg/kg/injection, schedule: Q01DX005 (ip), vehicle: Klucel (hydroxypropylcellulose) (HPC) 87 % of control | dose: 112.0 mg/kg/injection, schedule: Q01DX005 (ip), vehicle: Klucel (hydroxypropylcellulose) (HPC) 108 % of control
